According to paper PMC4627230, “Identification of TAX2 peptide as a new unpredicted anti-cancer agent” (Oncotarget, 2015):

Tests used:
[1] = test system: immobilized TSP-1 (thrombospondin from human platelets); experiment: ELISA competition by unlabeled TAX2; assay type: binding; conditions: biotinylated TAX2 10 μg/mL; unlabeled competitor 0.001 to 5 mg/mL
Description: Microtiter plates (Nunc, ThermoFisher Scientific, Courtaboeuf, France) were coated overnight at 4°C with 0.5 μg TSP-1 in sodium carbonate-bicarbonate (BupH) buffer (Thermo Fisher Scientific). Plates were washed with PBS 0.1% BSA (Sigma-Aldrich) and non-specific sites were saturated during 30 min using 1% (w/v) BSA in BupH buffer. Biotin-labeled peptide (10 μg/mL, determined after dose-response assay from 0.01 to 100 μg/mL) was added in buffer containing 0.5% (w/v) BSA and incubated for 3 h at room temperature. Non-labeled peptide (0.001 to 5 mg/mL) was used as selective competitor. Plates were washed with PBS containing 0.1% (w/v) BSA and treated for 30 min with mouse anti-biotin antibody. Bound antibody was quantified using the mouse IgG Elite Vectastain ABC kit (Vector Laboratories) followed by incubation with 1-Step Turbo TMB substrate as a chromogen (ThermoFisher Scientific). The reaction was stopped with 0.5 M H2SO4 and absorbance was read at 450 nm.

TSP-1:CD47 = experiment: Co-immunoprecipitation TSP-1:CD47 in HUVECs; assay type: cell-based, human; conditions: 100 μM vs scrambled peptide 100 μM, n = 3
Description: (§1) Figure 2 TAX2 peptide impairs endothelial cell migration and inhibits angiogenesis in vitro and ex vivo A. HUVECs were treated with TAX2 (100 μM) or scrambled peptide (Ctrl, 100 μM). CD47 was immunoprecipitated from total protein lysates using anti-CD47 (clone B6H12) and non-specific IgGs were used as a negative control. Immunocomplexes were then submitted to SDS-PAGE and immunoblotted (IB) using specific TSP-1 and CD47 antibodies. Histogram represents the quantification of co-immunoprecipitated TSP-1 relative to immunoprecipitated CD47. Results are expressed as percentage compared to control (n = 3 separate experiments, t test). B. HUVECs (1 × 10^5 per well) were grown at confluence and then cell proliferation was inhibited by incubating with 10 μg/mL mitomycin C for 2 h. […] Graph represents the quantification of the wounded area. […] Hoechst-stained migrating cells attached on outside surface of the top chamber were photographed (20× objective) and counted. Results are expressed as percentage of migrated cells as compared to control. […] After 8 h incubation, HUVEC tube-like formation was observed on an inverted microscope (40×) and quantification of network total length was done using ImageJ software. […] Data are expressed as the mean ± SE from at least 3 independent experiments, each performed in triplicate. […] The transcriptional level of TSP-1 was assessed by RT-PCR and normalized to β-actin. […]

[2] = test system: microvessel sprouting from mouse aortic rings (C57BL/6); experiment: Mouse aortic ring assay (ex vivo); conditions: 100 μM, 6 days, mouse aortic ring in matrigel
Description: as §1

[3] = test system: TSP-1 binding to β1 integrin; experiment: Co-immunoprecipitation TSP-1 with β1 integrin; assay type: cell-based, human; conditions: HUVECs, 100 μM; total protein lysates
Description: Protein lysates prepared in ice-cold lysis buffer or conditioned media were subjected to immunoprecipitation assay using the Pierce Co-IP kit (Thermo Fisher Scientific) according to the manufacturer's protocol. 10 μg of antibody (anti CD47, anti-CD36, anti-FGF2, anti-VEGF, anti-β1 integrin and anti-LRP1 heavy chain) or non-specific IgGs were incubated with the delivered resin and covalently coupled. The antibody-coupled resin was incubated with whole HUVEC protein lysate overnight at 4°C under gentle agitation (no cross-linker was used to stabilize protein complexes before HUVEC lysis). Then the resin was washed and the protein complexes bound to the antibody were eluted. Immunoprecipitated protein complexes were solubilized under denaturing and reducing conditions, heated to 100°C for 5 min and analyzed by immunoblotting as described above. […]
receptors. HUVECs were treated with TAX2 (100 μM) or scrambled peptide (Ctrl, 100 μM). FGF-2 and VEGF were immunoprecipitated from conditioned media using anti-FGF-2 (clone C-18) and anti-VEGF (clone C-1), respectively. β1 integrin and LRP-1 were immunoprecipitated from total protein lysates using anti-β1 integrin (clone BV7) and anti-LRP-1 heavy chain (clone 8G1), respectively. […] Histogram represents the quantification of relative ligand-bound TSP-1 under TAX2 treatment as compared to control. […]

## CEVSQLLKGDAC (disulfide) [TAX2, CD47-derived cyclic disulfide dodecapeptide …]
[1]
  competition with biotinylated TAX2 for TSP-1 binding: Competitive binding occurred in a dose-dependent fashion
TSP-1:CD47
  TSP-1 binding to CD47 (co-immunoprecipitation): specifically prevents TSP-1 binding to CD47
[2]
  microvessel sprouting from the aorta: markedly inhibited
[3]
  TSP-1 binding to β1 integrin: does not affect
